# From patent US20070219212A1, “Pyranouidole Derivatives and the Use Thereof for the Treatment of Hepatitis C Virus Infection or Disease” (priority 2004, published 2007)
# Where two headings read alike, the source gives them in different places.
# Key:
# [1] = molecular target: T1, NS5B from the BK strain (genotype 1b) (Hepatitis C virus genotype 1b, UniProt P26663); assay: Hepatitis C polymerase (NS5B, BK strain) inhibition, radioactive filter assay; format: biochemical; conditions: NS5B BK strain (genotype 1b)
# T1 construct: NS5B from the BK strain (genotype 1b) is expressed in E coli as a protein in which the 21 C-terminal amino acids are replaced; made in house; host or cells: E. coli
# Description: (§1) The ability of the compounds of the present invention to inhibit Hepatitis C Polymerase was established by the following experimental procedure:
# NS5B from the BK strain (genotype 1b) is expressed in E coli as a protein in which the 21 C-terminal amino acids are replaced with a short linker and a hexahistidine tag ([…]). The purified protein is mixed with radioactive nucleotides and allowed to replicate a heteropolymeric RNA substrate, primed by an endogenous short hairpin, resulting in an approximately 760 nt product. The radioactive product is captured on a filter and quantitated after removal of the unincorporated nucleotides.
# (§2) • 0.5M Na Phosphate buffer. Per liter, weigh 134 gr Na2HPO4.7H2O, add water to 900 ml. Adjust pH to 7.0 with phosphoric acid. Top off with water to 1 L. • Dilute nucleotides 1:1000 to 10 μM (GTP and CTP) or 1:100 to 100 μM (ATP and UTP) into RNase free water. Procedure: • (1) Compounds 10 μl at […] in 15% dimethylsulfoxide (DMSO) When starting from 100 μg/ml compound stock in 1% DMSO: Dispense 5 μl 30% DMSO per well Dispense 5 μl compound (100 μg/ml) per well. When starting from 50 μg/ml compound stock in 15% DMSO: Add 10 μl compound per well.
# (§3) Add 20 μl enzyme mix into each well of the assay plate. Incubate compound and enzyme at room temperature for 15 minutes • (3) Template mix—prepare ahead
# (§4) Spin down a tube of RNA (5 μg/tube stored in 75% ethanol and 0.3 M sodium acetate) in a microcentrifuge for 20 minutes at 4° C. One tube is enough for 1-1.5 plates. Remove as much ethanol from the tube as possible by inverting the tube. Be gentle, pellet RNA may not adhere to the tube. Vacuum dry the RNA. Resuspend the RNA by adding 1 ml of DEPC water, close the cap of the tube tightly. To dissolve RNA, incubate RNA solution on ice for ˜60 minutes and gently vortex. Spin briefly to ensure all RNA solution is down to the bottom of the tube before opening cap. Gently transfer RNA solution into a 5 ml or larger tube. Add another 3 ml of DEPC water (total 4 ml of volume).
# (§5) Add the following volumes of reagents
# (§6) Add 20 μl template mix per reaction (i.e. 20 ng of pOF per reaction or ˜3 nM) • (4) Incubate reaction at room temperature (22-25° C.) for 2 hours. • (5) Stop reaction by adding 50 μl of 170 mM EDTA.
# (§7) Final concentration of EDTA is 85 mM. • (6) Prewet filters of Millipore multiscreen assay plate by adding 200 μl of 0.5 M sodium phosphate buffer, pH 7.0 into each well. Let stand at room temperature for 2-3 minutes. • (7) Place the multiscreen filter plate onto a Millipore Manifold and turn on vacuum to allow buffer to flow through. Turn off vacuum. Transfer 80 μl of the reaction product into each well of the filter plate. Let stand for 2-3 minutes. Turn on vacuum to filter reaction product. • (8) Turn off vacuum. Add 200 μl of 0.5 M sodium phosphate buffer, pH 7.0 into each well to wash filter. Turn on vacuum.
# (§8) Repeat step (8) three more times. • (9) Remove polypropylene bottom. Spot dry filter at the bottom with paper towel. Air dry filter plate on a bench for 1 hour. Add 40 μl Super Mix scintillant. Seal top of the plate with a tape. Place plate into a Packard carrier or micro-beta carrier. • (10) Count plate using a Packard Topcount or micro-beta counter. Count (for example using Program 10) for ^33P in Top count or ^33P program in micro-beta.
# (§9) See, Ferrari et al. 1999. J. Virology 73:1649-1654: “Characterization of soluble Hepatitis C virus RNA-dependent RNA polymerase expressed in E. coli and Takamizawa et al. 1991” and J. Virology 65:1105-1113: “Structure and characterization of the Hepatitis C virus genome isolated from human carriers,” both references are hereby incorporated by reference.
# [2] = molecular target: BB7 RNA-dependent RNA polymerase hepatitis C virus protein (Con1 HCV sequence) (Hepatitis C virus genotype 1b, UniProt Q9WMX2); assay: Hepatitis C polymerase (BB7) inhibition; format: biochemical
# Description: For purposes of this invention, the term “BB7” denotes an RNA-dependent RNA polymerase hepatitis C virus protein sequence which is derived from HCV replicon. A discussion of BB7 and related technology can be found in Blight, K. et al. (2000) Science 290:1972-1974. BB7 can be licensed from Apath, LLC (893 North Warson Road, Saint Louis Mo. 63141, USA). BB7 is also referred to as Con1 HCV sequence and discussions of Con1 can be found in the following references: Lohmann, V. et al. (1999) Science 285:110-113; Pietschmann, T. et al. (2001) J. Virol. […]:1252-1264; Lohmann, V. et al. (2001) J. Virol. 75:1437-1449.
# as §1, §2, §3, §4, §5, §6, §7, §8, §9
# [3] = BB7 (Con1) NS5B, read-out: BB7 IC50
# Chain of BB7 RNA-dependent RNA polymerase hepatitis C virus protein (Con1 HCV sequence) (Q9WMX2 2420-3010): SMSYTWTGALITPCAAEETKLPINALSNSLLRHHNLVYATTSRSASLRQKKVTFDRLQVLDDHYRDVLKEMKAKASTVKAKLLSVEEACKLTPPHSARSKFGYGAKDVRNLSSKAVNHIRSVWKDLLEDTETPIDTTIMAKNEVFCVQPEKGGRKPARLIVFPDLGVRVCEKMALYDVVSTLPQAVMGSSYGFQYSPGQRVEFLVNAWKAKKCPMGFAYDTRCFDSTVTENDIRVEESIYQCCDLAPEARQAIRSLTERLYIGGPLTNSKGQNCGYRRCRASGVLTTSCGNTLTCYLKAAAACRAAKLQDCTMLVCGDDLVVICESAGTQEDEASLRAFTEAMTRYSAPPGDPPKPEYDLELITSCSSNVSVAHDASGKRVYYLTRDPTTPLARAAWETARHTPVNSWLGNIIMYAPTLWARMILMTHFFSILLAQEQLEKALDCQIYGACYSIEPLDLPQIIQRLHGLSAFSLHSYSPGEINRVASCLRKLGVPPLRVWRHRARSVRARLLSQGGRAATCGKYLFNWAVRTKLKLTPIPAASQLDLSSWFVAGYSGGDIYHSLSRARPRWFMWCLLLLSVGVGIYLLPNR
# T1 sequence (P26663 2420-2989): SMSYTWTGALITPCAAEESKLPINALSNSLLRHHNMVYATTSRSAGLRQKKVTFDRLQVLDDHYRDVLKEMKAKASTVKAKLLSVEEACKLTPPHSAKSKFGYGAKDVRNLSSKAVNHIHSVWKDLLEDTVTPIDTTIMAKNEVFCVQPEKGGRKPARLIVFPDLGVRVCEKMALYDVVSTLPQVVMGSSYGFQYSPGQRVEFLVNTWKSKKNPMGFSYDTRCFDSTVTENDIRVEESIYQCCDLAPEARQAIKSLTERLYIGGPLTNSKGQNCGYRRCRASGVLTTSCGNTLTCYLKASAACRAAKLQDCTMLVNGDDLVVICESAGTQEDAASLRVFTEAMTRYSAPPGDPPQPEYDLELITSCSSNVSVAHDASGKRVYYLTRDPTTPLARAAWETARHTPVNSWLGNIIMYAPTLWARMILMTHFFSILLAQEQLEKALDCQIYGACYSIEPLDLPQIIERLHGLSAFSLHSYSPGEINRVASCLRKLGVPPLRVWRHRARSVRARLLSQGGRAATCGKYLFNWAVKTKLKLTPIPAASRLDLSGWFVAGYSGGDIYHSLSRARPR
compound,measurement,setting,value
CCCC1(CC(=O)O)OCCc2c1[nH]c1c(C)c(O[C@@H]3CCOC3)cc(C#N)c21 (stereo partly shown) [Example 39],IC50,[1],< 500 nM
same,IC50,[2]; [3],< 500 nM
"CCC[C@]1(CC(=O)O)OCCc2c1[nH]c1c(C)c(OC[C@@H](C)OC)cc(C#N)c21 [Example 28, (1R,2′R)-[5-Cyano-7-(2-methoxy-propoxy)-8-methyl-1-propyl-1,3,4,9-tetrahydro-pyrano[3,4-b]indol-1-yl]-acetic acid]",IC50,[1],< 500 nM
same,IC50,[2],< 500 nM
CCCC1(CC(=O)O)OCCc2c1[nH]c1c(C)c(OCc3cccc(C)n3)cc(C#N)c21 (stereo not shown) [Example 63],IC50,[1],< 500 nM
same,IC50,[2]; [3],< 500 nM
CCCC1(CC(=O)O)OCCc2c1[nH]c1c(C)c(OCc3cccnc3N)cc(C#N)c21 (stereo not shown) [Example 51],IC50,[1],< 500 nM
same,IC50,[2],< 500 nM
CCCC1(CC(=O)O)OCCc2c1[nH]c1c(C)c(OCc3nsc(OCC)n3)cc(C#N)c21 (stereo not shown) [Example 134],IC50,[1],< 500 nM
same,IC50,[2]; [3],< 500 nM
"CCCC1(CC(=O)O)OCCc2c1[nH]c1c(C)c(OCc3ccncc3)cc(C#N)c21 (stereo not shown) [Example 24, [5-Cyano-8-methyl-1-propyl-7-(pyridin-4-ylmethoxy)-1,3,4,9-tetrahydro-pyrano[3,4-b]indol-1-yl]-acetic acid]",IC50,[1],< 500 nM
same,IC50,[2],< 500 nM
CCCC1(CC(=O)O)OCCc2c1[nH]c1c(C)c(OCCOCC)cc(C#N)c21 (stereo not shown) [Example 111],IC50,[1],< 500 nM
same,IC50,[2],< 500 nM
CCCC1(CC(=O)O)OCCc2c1[nH]c1c(C)c(OCc3ccncc3)cc(C#N)c21 (stereo not shown) [Example 38],IC50,[1],< 500 nM
same,IC50,"[2]; read-out: BB7 IC50, BB7 (Con1) NS5B",< 500 nM
"CC[C@H](C)C1(CC(=O)O)OCCc2c1[nH]c1c(C)c(OCCOC(C)C)cc(C#N)c21 (mixture of isomers) [Example 34, (1R*,10S)-[1-sec-Butyl-5-cyano-7-(2-isopropoxy-ethoxy)-8-methyl-1,3,4,9-tetrahydro-pyrano[3,4-b]indol-1-yl]-acetic acid]",IC50,[1],< 500 nM
same,IC50,[2],< 500 nM
CCCC1(CC(=O)O)OCCc2c1[nH]c1c(C)c(OCc3conc3C)cc(C#N)c21 (stereo not shown) [Example 77],IC50,[1],< 500 nM
same,IC50,[2],< 500 nM
CCCC1(CC(=O)O)OCCc2c1[nH]c1c(C)c(OCc3cccnc3C)cc(C#N)c21 (stereo not shown) [Example 62],IC50,[1],< 500 nM
same,IC50,[2]; [3],< 500 nM
CCCC1(CC(=O)O)OCCc2c1[nH]c1c(C)c(O)cc(C#N)c21 (stereo not shown) [Example 45],IC50,[1],< 500 nM
same,IC50,[2],< 500 nM
"CCCC1(CC(=O)O)OCCc2c1[nH]c1c(C)c(COCC)cc(C#N)c21 (stereo not shown) [Example 3, (5-Cyano-7-ethoxymethyl-8-methyl-1-propyl-1,3,4,9-tetrahydro-pyrano[3,4-b]indo-1-yl)-acetic acid]",IC50,[1],500 to 5000 nM
same,IC50,[2],< 500 nM
CCCC1(CC(=O)O)OCCc2c1[nH]c1c(C)c(OCc3ccnc(C(=O)O)c3)cc(C#N)c21 (stereo not shown) [Example 61],IC50,[1],< 500 nM
same,IC50,[2],< 500 nM
CCCC1(CC(=O)O)OCCc2c1[nH]c1c(C)c(OCc3nc(C)ccc3OC)cc(C#N)c21 (stereo not shown) [Example 86],IC50,[1],< 500 nM
same,IC50,[2],< 500 nM
CCCC1(CC(=O)O)OCCc2c1[nH]c1c(C)c(O[C@@H]3CCNC3)cc(C#N)c21 (stereo partly shown) [Example 42],IC50,[1],< 500 nM
same,IC50,[2],500 to 5000 nM
"CCCOCc1cc(C#N)c2c3c([nH]c2c1C)C(CCC)(CC(=O)O)OCC3 (stereo not shown) [Example 4, (5-Cyano-8-methyl-7-propoxymethyl-1-propyl-1,3,4,9-tetrahydro-pyrano[3,4-b]indol-1-yl)-acetic acid]",IC50,[1],500 to 5000 nM
same,IC50,[2],< 500 nM
CCCC1(CC(=O)O)OCCc2c1[nH]c1c(C)c(OCc3cc[nH]n3)cc(C#N)c21 (stereo not shown) [Example 83],IC50,[1],< 500 nM
same,IC50,[2],< 500 nM
CCCC1(CC(=O)O)OCCc2c1[nH]c1c(C)c(OCc3cc(CC)n(C)n3)cc(C#N)c21 (stereo not shown) [Example 139],IC50,[1],< 500 nM
same,IC50,[2],< 500 nM
"CCC(C)C1(CC(=O)O)OCCc2c1[nH]c1c(C)c(OCc3cc(C)n(C)n3)cc(C#N)c21 [Example 36, (1R*,10S)-[1-sec-Butyl-5-cyano-7-(1,5-dimethyl-1H-pyrazol-3-ylmethoxy)-8-methyl-1,3,4,9-tetrahydro-pyrano[3,4-b]indol-1-yl]-acetic acid]",IC50,[1],< 500 nM
same,IC50,[2],< 500 nM
